# Results from article PMC3882073 (European neuropsychopharmacology : the journal of the …, 2012).
# Structures can show the parent of a compound that is named as a salt.
# Tests used:
# [1] = tested on: basal dopamine (DA) levels in prefrontal cortex (PFC); experiment: Basal dopamine levels in PFC, in vivo microdialysis; design: species or system rat
# [2] = tested on: AMPH-induced DA release in prefrontal cortex (PFC); experiment: Amphetamine; format: in vivo, rat
# [3] = tested on: AMPH-induced DA release in striatum; experiment: Amphetamine; format: in vivo, rat
# [4] = tested on: psychotomimetic effects of ketamine; settings: ref D’Souza et al., 2012, cited from earlier work
# [5] = experiments involving Org25935 and DCS
smiles,measurement,setting,value
"c1ccc(C2(N3CCCCC3)CCCCC2)cc1 [PCP, Phencyclidine hydrochloride]",Mean basal dopamine (DA) levels in PFC,"[1]; Org25935 experiments, PCP 15 mg/kg/d minipump alone (vehicle), mean ± std dev",1.03 ± .80 (16) pg/10 μl
same,Effect on basal DA levels,"[1]; PCP 15 mg/kg/d, experiments involving Org25935",no significant effect on basal DA levels
same,Effect of treatment on basal DA levels,"[1]; R231857/60 experiments, rmANOVA","Neither PCP (F1,49=.2, p=.6) nor R231857/R231860 (F3,49=.5, p=.7) treatment significantly altered basal DA levels"
same,Effect of PCP on AMPH-induced DA release in PFC,"[2]; Org25935 experiments, PCP 15 mg/kg/d, 0–210 min after AMPH 1 mg/kg sc",significantly increased AMPH-induced DA release
same,Effect of PCP on AMPH-induced DA release in striatum,[3]; [5],no significant effects
same,Effect on striatal DA release,[3]; summary statement (abstract),Neither PCP nor GTIs significantly affected striatal DA release
NCC(=O)O [Glycine],Effect on AMPH-induced DA release in PFC,"[2]; in the presence of PCP, glycine 16% by diet 2 weeks, positive control, 60–210 min",significantly reduced DA release
COc1ccc2c(c1)CC[C@H](CN(C)CC(=O)O)[C@@H]2c1ccccc1 [Org25935],Effect on basal DA levels,"[1]; Org25935 5 mg/kg, across control and PCP treatment conditions, post-hoc LSD",significant increase in basal DA levels
same,Effect on basal DA levels,"[1]; Org25935 10 mg/kg, across control and PCP treatment conditions, post-hoc LSD",non-significant decrease
same,Effect on AMPH-induced DA release in PFC,"[2]; Org25935 5 mg, in the absence of PCP",no significant effect on AMPH-induced DA release
same,Effect on AMPH-induced DA release in PFC,"[2]; Org25935 5 mg, in the presence of PCP vs PCP alone, 60–210 min",did not significantly reduced AMPH-induced DA release
same,Effect on AMPH-induced DA release in PFC,"[2]; Org25935 10 mg, in the absence of PCP",no significant effect on AMPH-induced DA release
same,Effect on AMPH-induced DA release in PFC,"[2]; Org25935 10 mg, in the presence of PCP vs PCP alone, 60–210 min",effective
same,Effect on AMPH-induced DA release in PFC,"[2]; Org25935, across doses, entire 0–210 min interval",significantly inhibited AMPH-induced DA release
same,Effect of drug treatment on AMPH-induced DA release in striatum,[3]; [5],no significant effects
same,Total symptoms induced by ketamine,[4]; acute challenge study,reversed
same,Acute psychotomimetic effects of ketamine,[4]; healthy volunteers,reverse acute psychotomimetic effects of ketamine
same,Safety in human use,[4]; humans,safe in human use
"N[C@@H]1CON=C1O [DCS, D-cycloserine]",Effect on basal DA levels,[1]; DCS 30 mg/kg ip per day 2 weeks,no significant effect on basal DA levels
same,Effect on AMPH-induced DA release in PFC,"[2]; DCS 30 mg/kg ip per day 2 weeks, 60–210 min time period",significantly reduced AMPH-induced DA release
same,Effect on AMPH-induced DA release in PFC,"[2]; DCS 30 mg/kg ip per day 2 weeks, in the absence of PCP",no significant effect on AMPH-induced DA release
same,Effect on PCP-induced enhancement of DA release in prefrontal cortex,[2]; summary statement (abstract),significantly reduced PCP-induced enhancement of DA release in prefrontal cortex
same,Effect of drug treatment on AMPH-induced DA release in striatum,[3]; [5],no significant effects
